Measured values as given in ChEMBL document CHEMBL1130949, “Construction of a family of biphenyl combinatorial libraries: structure-activity studies utilizing libraries of mixtures” (Bioorg Med Chem Lett, 1998).

Assay: Binding affinity against vitronectin receptor was determined

| IC50 | Compound |
| --- | --- |
| 31 µM | CC(=O)N[C@@H](CC(=O)O)C(=O)Nc1ccc(-c2cccc(C(=O)O)c2)cc1 |
| 52 µM | CC(=O)N[C@@H](CC(=O)O)C(=O)Nc1ccc(-c2ccccc2C(=O)O)cc1 |
| > 500 µM | CC(C)C(=O)N[C@@H](CC(=O)O)C(=O)Nc1ccc(-c2ccccc2C(=O)O)cc1 |
| 46 µM | CC(=O)N[C@@H](CC(=O)O)C(=O)Nc1cccc(-c2ccccc2C(=O)O)c1 |
| 34 µM | CC(=O)N[C@@H](CC(=O)O)C(=O)Nc1ccc(-c2ccccc2C(=O)N[C@@H](CCCN=C(N)N)C(=O)O)cc1 |
| > 500 µM | COCC(=O)N[C@@H](CC(=O)O)C(=O)Nc1ccc(-c2ccccc2C(=O)O)cc1 |
| 96 µM | CC(=O)N[C@@H](CC(=O)O)C(=O)Nc1ccc(-c2ccc(C(=O)O)cc2)cc1 |
| 96 µM | CC(=O)N[C@@H](CC(=O)O)C(=O)Nc1ccc(-c2ccccc2C(N)=O)cc1 |
| > 500 µM | CC(=O)N[C@H](CC(=O)O)C(=O)Nc1ccc(-c2ccccc2C(=O)O)cc1 |
